From PubChem BioAssay (NCI) come the findings set out here.

Common to all, as to test: growth of human tumour cells (NCI), 48 h
The subject of assay [1] is HT29 colon.
For assay [2], the system named is HCT-15 colon.
Assay [3] deals with MOLT-4 leukemia.
Assay [4] relates to HS 578T breast.
Assay [5] concerns SW-620 colon.
The test system of assay [6] is LOX IMVI melanoma.
Assay [7] concerns NCI-H522 lung.
The test system of assay [8] is MDA-MB-231 breast.
The test system of assay [9] is T-47D breast.
The subject of assay [10] is PC-3 prostate.

Several values for one entry are separate records, joined by “and”; a condition that tells them apart may be missing. Identical values can stand only once.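 1) Cells in 96-well plates. 2) Compound, 48 h, 5 concentrations. 3) Linear interpolation between surrounding doses. 4) Unreached endpoint = highest concentration. GI50: concentration for 50% inhibition of growth. TGI denotes the concentration required for complete inhibition of growth.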

As for `Cc1ccc(C(=O)/C(=C\c2ccc([N+](=O)[O-])cc2)S(=O)Cc2ccc(Cl)cc2)cc1` (configuration not stated), the GI50 in [1] is 1880 nM; in assay [2] it was 1610 nM; in [3] it was 1200 nM; in assay [4], 2480 nM; in assay [5], 1590 nM; in assay [6], 1550 nM. The GI50 is 1720 nM in assay [7], 1860 nM in assay [8], 1510 nM in assay [9] and 1.56 µM in assay [10]. The TGI in [1] is 4.3 µM; in [2], 3.75 µM; in assay [3] it was 6.14 µM; in assay [4] it was 7.39 µM; in [5], 3.44 µM; in [6], 3.04 µM. The TGI in [7] was 3.18 µM; in assay [8], 3.88 µM; in [9], 3.37 µM; in assay [10], 3.12 µM.

For the molecule `CCOC(=O)C1=C(C)N(Cc2ccc(Cl)cc2Cl)C2(O)C=CC(=O)C3=C(O)c4ccccc4C(=O)C312` (configuration not stated), the GI50 in [1] was 5040 nM; in assay [2], 1820 nM; in assay [3], 3870 nM; in assay [4], 16100 nM; in [5], 4740 nM; in assay [6], 2750 nM. Also, the GI50 in assay [7] was 11400 nM; in [8] it was 3960 nM; in assay [9], 6830 nM; in assay [10], 2.16 µM. Also, the TGI in [1] is above 100 µM; in assay [2], 13.5 µM; in [3], above 100 µM; in assay [4], 96.3 µM; in assay [5], above 100 µM; in assay [6] it was 16.1 µM. The TGI was above 100 µM in [7], 12.8 µM in [8], 39.7 µM in assay [9] and 10.5 µM in [10].

For the molecule `O=C(Nc1cccc(Cl)c1)c1cccc(NC2=C(Cl)C(=O)N(Cc3ccccc3)C2=O)c1`, the GI50 was 55700 nM in assay [1]; 30000 nM in [2]; 22200 nM in assay [3]; above 100000 nM in assay [4]; 58600 nM in assay [5]; 28300 nM in assay [6]. Also, the GI50 was 18800 nM in [7], 4540 nM in [8], above 100000 nM in [9] and 21.9 µM in [10]. In addition, the TGI in assay [1], in assay [2], in assay [3], in [4], in assay [5] and in assay [6] was above 100 µM each time. The TGI in assay [7] was 53 µM; in assay [8] it was above 100 µM; in assay [9] it was above 100 µM; in assay [10], 93.1 µM.

`O=C(/C=C/C12c3ccccc3C(c3ccccc31)C1C(=O)NC(=O)C12)c1ccc(F)cc1` (configuration not stated): the GI50 in assay [1] is 2340 nM; in [2], 1660 nM; in [3], 457 nM; in [4], 2280 nM; in assay [5], 2120 nM; in assay [6], 1670 nM. Besides, the GI50 was 2140 nM in assay [7], 3050 nM in assay [8], 2520 nM in assay [9] and 1.66 µM in assay [10]. For the same molecule, the TGI in [1] came out at 5.21 µM; in assay [2], 4.2 µM; in assay [3], 2.9 µM; in [4], 7.84 µM; in assay [5] it was 4.59 µM; in assay [6], 3.28 µM. The TGI in assay [7] was 4.98 µM; in assay [8], 9.58 µM; in assay [9] it was 8.13 µM; in assay [10], 3.38 µM.

Take `C/C(=N\NC(=S)SCc1ccccc1)c1ccccn1`: the TGI is 15.6 µM in assay [1]; 12.1 µM in [2]; 26.3 µM in assay [4]; 9.86 µM in assay [5]; 9.56 µM in [6]; 2.79 µM in assay [7]. Further, the TGI in assay [8] is 4.08 µM; in assay [9], above 42.6 µM; in assay [10], 15.2 µM.

Consider `C/C(=C\c1cc(C(F)(F)F)n(-c2ccc(N)cc2)n1)[C@@H]1C[C@@H]2O[C@]2(C)CCC[C@H](C)[C@H](O)[C@@H](C)C(=O)C(C)(C)[C@@H](O)CC(=O)O1`, for which the GI50 is 6.21 nM in assay [1]; 25.6 nM in [2]; 51.5 nM in assay [3]; 28.7 nM in assay [4]; 5.54 nM in assay [5]; 31.2 nM in assay [6]. Further, the GI50 was 23.3 nM in assay [7], 137 nM in assay [8], 54.2 nM in assay [9] and 0.0297 µM in assay [10]. Moreover, the TGI is 0.339 µM in assay [1]; above 11.1 µM in assay [2]; above 11.1 µM in assay [3]; 0.627 µM in [4]; above 11.1 µM in assay [5]; above 11.1 µM in assay [6]. Moreover, the TGI in assay [7] is 0.0839 µM; in [8], above 11.1 µM; in assay [9], above 11.1 µM; in [10] it was above 11.1 µM.

Regarding `O=C1C2CCN(CC2)C1(CO)CO`, the TGI in assay [1] turned out to be 73.7 µM; in assay [2], 34.6 µM; in [3] it was 23.6 µM; in [4] it was 70.6 µM; in [5] it was 36.3 µM; in [6], 36 µM. Besides, the TGI is 33.2 µM in assay [7], 44 µM in assay [8], 45.4 µM in assay [9] and above 100 µM in assay [10].

For `COc1cc2nccc(Oc3ccc(NC(=O)Nc4cc(C)on4)c(Cl)c3)c2cc1OC`, the GI50 in assay [1] was 3010 nM and 2780 nM; in assay [2], 4360 nM and 4200 nM; in [3], 2120 nM and 1860 nM; in assay [4], 1480 nM and 1540 nM; in assay [5], 3110 nM and 4090 nM; in assay [6] it was 2210 nM and 2190 nM. Also, the GI50 was 3470 nM and 3140 nM in [7]; 2180 nM and 2420 nM in assay [8]; 2980 nM and 3350 nM in assay [9]; 4.74 µM and 5.91 µM in assay [10]. Besides, the TGI in [1] was 15.5 µM and > 10 µM; in [2] it was above 100 µM; in assay [3] it was 44.1 µM and > 10 µM; in [4], 5.78 µM and > 10 µM; in assay [5] it was 18.4 µM and > 10 µM; in [6], 8.14 µM and > 10 µM. Further, the TGI is 32.9 µM and > 10 µM in assay [7]; 8.73 µM and > 10 µM in assay [8]; 23.2 µM and > 10 µM in assay [9]; above 100 µM in [10].

Regarding `CO/N=C(\COc1ccc2oc(-c3ccccc3)cc(=O)c2c1)c1ccc(OC)cc1`, the GI50 in assay [1] is 19700 nM; in assay [2], 30200 nM; in assay [4], 35100 nM; in assay [5], 25600 nM; in assay [6], 41400 nM; in [7], 17800 nM. Also, the figures for the GI50 in [8], in assay [9] and in [10] were 22000 nM, 22800 nM and 29.9 µM, respectively. For the same molecule, the TGI in [1] is 48.6 µM; in [2] it was above 100 µM; in assay [4], above 100 µM; in assay [5], above 100 µM; in assay [6], above 100 µM; in assay [7], 37.4 µM. The figures for the TGI in assay [8], in assay [9] and in [10] were 45.2 µM, 63.8 µM and 98.5 µM, respectively.

For `CC1(C)NCCC[C@]2(C)[C@H]3CC[C@@H]4[C@H]5[C@H](C(=O)/C=C/c6ccccn6)CC[C@]5(CO)CC[C@@]4(C)[C@]3(C)CC[C@@H]12`, the GI50 in assay [1] is 2850 nM; in assay [2], 1840 nM; in [3] it was 2350 nM; in assay [4], 4390 nM; in assay [5] it was 1820 nM; in [7], 1810 nM. Further, the GI50 in assay [8] was 2290 nM; in assay [9] it was 2780 nM; in assay [10] it was 2.55 µM. The TGI in assay [1] was 11.3 µM; in [2], 3.89 µM; in assay [3], 7.18 µM; in assay [4] it was 23.6 µM; in [5] it was 3.49 µM; in assay [7] it was 4.45 µM. In addition, the results for the TGI in assay [8], in assay [9] and in assay [10] were 5.64 µM, 16 µM and 11.8 µM, respectively.

Take `CCOC(=O)C#Cc1c(C(=O)OCC)nnn1Cc1ccc([N+](=O)[O-])cc1`: the GI50 in [2] is 1660 nM; in assay [3], 2160 nM; in assay [4], 19400 nM; in assay [5] it was 1850 nM; in assay [6], 949 nM; in assay [7], 1920 nM. Also, the results for the GI50 in [8], in assay [9] and in [10] were 3250 nM, 2780 nM and 10.2 µM, respectively. For the same molecule, the TGI stood at 3.29 µM in assay [2]; 13.3 µM in assay [3]; 61.4 µM in [4]; 3.79 µM in assay [5]; 2.29 µM in assay [6]; 3.8 µM in assay [7]. The TGI in assay [8] came to 9.14 µM; in assay [9], 7.65 µM; in [10], 22.4 µM.

Regarding `O=NNc1ccc(Sc2ccc(NN=O)cn2)nc1`, the TGI in assay [1], in assay [2], in assay [3], in assay [4], in assay [5] and in [7] was above 100 µM in each case. Besides, the TGI in [8], in [9] and in assay [10] was above 100 µM in each case.
